Reference: paper PMC3410856, “Structural Analysis of Specific Metal Chelating Inhibitor Binding to the Endonuclease Domain of Influenza pH1N1 (2009) Polymerase” (PLoS Pathogens, 2012)
Read-outs that look alike come from different tables or passages of the source.

Experiments:
[1] = in vitro; settings: dog
[2] = test system: Influenza A virus A/Aichi/2/68 (H3N2); assay: microbe, parasite or virus in culture; type: cell-based; settings: MDCK cells, MOI 0.05, 48 h, CellTiter-Glo, 95% confidence intervals; for IC50: Influenza A virus, H3N2, read-out: antiviral activity IC50 (reduction of virus induced cytopathic effect)
[3] = target: influenza polymerase; settings: read-out: IC50 in vitro cap-dependent transcriptase assay; cited from earlier work
[4] = target: T1, H1N1 PA-Nter (Influenza A virus, UniProt C3W5S0); type: binding
T1 construct: PA-N-ter (residues 1–198) from A/California/04/2009-pH1N1; made in house; host or cells: E. coli BL21(DE3)

Row | SMILES | CC50 [1] [µM] | IC50 [2] [µM] | IC50 [3] [µM] | Tm (apparent melting temperature) [4] [°C] | antiviral activity IC50 (reduction of virus induced cytopathic effect) [2] | antiviral activity IC50 (reduction of virus induced cytopathic effect) ([2]; listed as DBPA) | Tm (apparent melting temperature) ([4]; 5 µM PA-Nter, 500 µM inhibitor, no ligand 53.5) [°C]
1 | O=C(O[C@@H]1Cc2c(O)cc(O)cc2O[C@@H]1c1cc(O)c(O)c(O)c1)c1cc(O)c(O)c(O)c1 [EGCG, [(2R,3R)-5,7-dihydroxy-2-(3,4,5-trihydroxyphenyl)chroman-3-yl]3,4,5-trihydroxybenzoate] | 54.7 ± 4.5 | 1.1 ± 0.4 | – | – | – | – | –
2 | O=C(O)/C(O)=C/C(=O)C1(Cc2ccc(Cl)cc2)CCCN(S(=O)(=O)Cc2ccccc2)C1 (stereo not shown) [R05-1, 4-[3-[(4-chlorophenyl)methyl]-1-(phenylmethylsulpho)-3-piperidinyl]-2-hydroxy-4-oxo-2-butenoic acid] | > 100 | 20.4 ± 3 | 0.19 | 69 | – | – | –
3 | O=C(O)/C(O)=C/C(=O)C1(Cc2ccc(Cl)cc2)CCCN(Cc2ccccc2)C1 (stereo not shown) [R05-3, 4-[N-benzyl-3-(4-chlorobenzyl)piperidin-3-yl]2,4-dioxobutanoic acid] | 79.8 ± 11.5 | 19.9 ± 2 | – | 69 | – | – | –
4 | O=C(O)/C(O)=C/C(=O)C1(Cc2ccc(Cl)cc2)CCN(CC2CCCCC2)CC1 [R05-2, 4-[1-cyclohexylmethyl-4-(p-chlorobenzyl)piperidin-4-yl]2,4-dioxobutanoic acid] | > 50 | 15.9 ± 4 | – | 71 | – | – | –
5 | O=C(O)C(=O)CC(=O)c1ccccc1 [DPBA, 2,4-dioxo-4-phenylbutanoic acid] | > 200 | – | – | – | inactive | did not show any inhibitory effect | 65
